Patent publication US20260258084A1, “New Peptides as Selective IL-23 Receptor Antagonists” (Sanofi, priority 2022, published 2026)
Values after ≈ are worked out from the molar mass of the structure shown. Where two headings read alike, the source gives them in different places. Starred links: 1 amine or outer side, 2 acyl side, 3 side chain; linkers in the order of their positions; H or OH if unused. Positions of bridges follow the written chain, without caps; N, C: chain ends. Non-standard residues stand in square brackets, D forms with d. Residues, ends and D or L forms follow the SMILES beside them. Groups on a side chain read outwards from the residue. *: point of attachment. Trp(7-Me) = Cc1cccc2c(C[C@H](N)C(=O)O)c[nH]c12; C18 diacid = O=C(O)CCCCCCCCCCCCCCCCC(=O)*; γGlu = O=C(O)[C@H](CCC(=O)[*:2])N[*:1]; 2Nal = N[C@@H](Cc1ccc2ccccc2c1)C(=O)O; 3Pal = N[C@@H](Cc1cccnc1)C(=O)O; αMeL = CC(C)C[C@](C)(N)C(=O)O; Suc = O=C(CCC(=O)[*:2])[*:1]; AEEA = NCCOCCOCC(=O)O; Me2NCH2CH2 = CN(C)CC*; Aib = CC(C)(N)C(=O)O; Ava = NCCCCC(=O)O; Sar = CNCC(=O)O

Key:
[1] = biological target: T1, human interleukin-23 receptor (recombinant human IL-23R-Fc chimera) (Homo sapiens, UniProt Q5VWK5); test: Human ELISA IL23/IL23R (assay for specific human IL23R antagonists); type: binding; conditions: Table 10; read-out: Human ELISA IL23/IL23R IC50
T1 construct: Fc (IgG Fc fusion)
Summary of the method: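 Plates coated overnight at 4 °C with human IL23 ([…]), blocked, then serially diluted peptides added with recombinant human IL-23R-Fc (0.1 μg/ml final) for 60 min at room temperature. Bound receptor detected with anti-human IgG1-HRP and fluorogenic peroxidase substrate.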

[2] = system: IL-23 induced STAT3 signaling in HEK-Blue™ IL-23 cells; test: IL-23 induced STAT3 signaling in HEK-Blue IL-23 cells (SEAP reporter); type: cell-based; conditions: human IL23 0.25 ng/ml, read-out: pSTAT3
Summary of the method: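 HEK-Blue IL-23 cells (10,000/well) pre-incubated 60 min at 37 °C with serially diluted peptides, then stimulated overnight with human IL-23 (0.25 ng/ml final). STAT3-driven SEAP in supernatant detected with QUANTI-Blue after 45 min at RT (OD 620-655 nm); dose-response curves fitted.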

Pepsin = system: T2, Pepsin; test: Protease stability in simulated gastric fluid (Pepsin-SGF, FaSSGF); type: in vitro ADME; conditions: simulated gastric fluid with pepsin (Pepsin-SGF), 60 min, 1 μM peptide, 37° C., read-out: FaSSGF 60 (min), remaining percent of peptide
T2 construct: purchased Merck Millipore
Procedure: (§1) Studies were carried out in simulated intestinal fluid (SIF) and simulated gastric fluid (SGF) to evaluate gastric stability of the peptide compounds disclosed herein.
For clarification the term “Pepsin-SGF” refers to a solution of simulated gastric fluid containing pepsin whereas “SGF media” refers to a solution of simulated gastric fluid without pepsin. Pepsin-SGF was prepared by dissolving 320 mg Pepsin (Merck Millipore) in 100 mL SGF media concentrate (ProSense).
(§2) Peptides were first dissolved at 1 mM stock concentration in 0.01 HCl (+/−10% of DMSO) and were than diluted further with water to a stock concentration of 20 μM. Final peptide concentration in the incubation was 1 μM.
(§3) To 76 μL of the Pepsin-SGF buffer, 4 μL of the 20 μM peptide stock solution was added and incubated at 37° C. At each timepoint (0, 60, 120 and 240 minutes) the reaction was quenched with addition of 80 μL Ethanol (0.1% HCOOH). The samples were centrifuged for 20 minutes and an aliquot of the supernatant 100 μL were transferred to a LoBind-MTP plate and analyzed by LCMS/MS. The peak area response was calculated at each time point for each test compound. As internal reference, the peak area response of the same test compound at TO was calculated. The percent remaining at each timepoint was calculated based on the peak area response ratio of the test compound at TO. Time 0 was set to 100%, and all later timepoints were calculated relative to time 0.

Pancreatin = test: Protease stability in simulated intestinal fluid (Pancreatin-SIF, FaSSIF); type: in vitro ADME; conditions: 1 μM peptide, 37° C.; for remaining at 1 h, 1 µM: 60 min, read-out: FaSSIF 60 (min), remaining percent of peptide; for remaining at 2 h, 1 µM: 120 min, read-out: FaSSIF 120 (min), remaining percent of peptide; for remaining at 4 h, 1 µM: 240 min, read-out: FaSSIF 240 (min), remaining percent of peptide
Procedure: as §1
Similarly, the term “Pancreatin-SIF” refers to a solution of simulated intestinal fluid containing pancreatin whereas “SIF-media” refers to a solution of simulated intestinal fluid without pancreatin.
Pancreatin-SIF was prepared by dissolving 1 mg Pancreatin (MP Biomedicals) in 10 mL SIF media concentrate (ProSense).
as §2
as §3, with “µM” for “μM”

[3] = Solubility testing of peptides at different pH; type: physicochemical; conditions: target concentration 1 mg/ml, 2 hours agitation
Procedure: Prior to the solubility measurement of a synthesized peptide batch, its purity was determined through UPLC/MS (methods B-G).
For solubility testing the target concentration was 1 mg pure compound/ml. Therefore, solutions from solid samples were prepared in a buffer system at a concentration of 1 mg/mL compound. The solid samples were obtained by drying down aliquots of a dimethyl sulfoxide stock solution using a Thermo Speedvac vacuum centrifuge. The dry down time was 3 hours. • Solubility buffer system A) 50 mM HCl pH 1.2 • Solubility buffer system B) 50 mM phosphate buffer pH 6.5 • Solubility buffer system C) 50 mM phosphate buffer pH 7.4 • Solubility buffer system D) 50 mM phosphate buffer pH 9.0
UPLC-UV (Method A) was performed after 2 hours of gentle agitation from the filtered (0.45 μm filter plates) solutions, which was obtained by 10 mins of centrifugation forced filtration at 1500 RCF (relative centrifugal acceleration).
The solubility was determined by the comparison of the UV peak area of 2 μL-injections of a buffered sample diluted 1:5 with a standard curve of a dimethyl sulfoxide reference sample of the diluted in dimethyl sulfoxide with known concentration. The different extinction coefficients were taken into account for the calculation.

[4] = Chemical stability assessment of peptides (relative purity loss); type: physicochemical; conditions: 24 hours at 37° C.
Procedure: Purity of a peptide batch was determined through UPLC/MS (Methods B-G) prior to chemical stability measurement. The target concentration was 1 mg/ml pure compound. Solutions from solid samples were prepared in the following buffer systems with a concentration of 1 mg/ml compound based on the previously determined % purity: • Solubility buffer system A) 50 mM HCl pH 1.2+Acetonitrile (1:1) • Solubility buffer system B) 50 mM phosphate buffer pH 6.5+Acetonitrile (1:1) • Solubility buffer system C) 50 mM phosphate buffer pH 7.4+Acetonitrile (1:1)
Prepared solutions were stored for 24 hours at 2° C. and 37° C. After this time course, the samples were centrifuged for 15 min at 2500 RCF to create a 1:5 dilution of the supernatant. Then 2 μl of the dilution were analysed with UHPLC-UV.
The chemical stability was rated through the relative loss of purity calculated by the equation:
[(purity after 0 hours at 37° C.)−(purity after 24 hours at 37° C.)]/(purity after 0 hours at 37° C.)]*100%
The purity is calculated as [(peak area peptide)/(total peak area)]*100%.

Row | Structure (SMILES) | IC50 [1] | IC50 [2] | remaining at 1 h, 1 µM (Pepsin) | remaining at 1 h, 1 µM (Pancreatin) | remaining at 2 h, 1 µM (Pancreatin) | remaining at 4 h, 1 µM (Pancreatin) | solubility at 2 h ([3]; 50 mM HCl buffer, 50 mM HCl pH 1.2, read-out: Solubility Buffer pH 1.2) | solubility at 2 h ([3]; 50 mM phosphate buffer pH 6.5, read-out: Solubility Buffer pH 6.5) | solubility at 2 h ([3]; 50 mM phosphate buffer pH 7.4, read-out: Solubility Buffer pH 7.4) | solubility at 2 h ([3]; 50 mM phosphate buffer pH 9.0, read-out: Solubility Buffer pH 9.0) | Chemical stability (relative purity loss) Buffer pH 1.2 ([4]; 50 mM HCl pH 1.2 + acetonitrile (1:1)) | Chemical stability (relative purity loss) Buffer pH 6.5 ([4]; 50 mM phosphate buffer pH 6.5 + acetonitrile (1:1)) | Chemical stability (relative purity loss) Buffer pH 7.4 ([4]; 50 mM phosphate buffer pH 7.4 + acetonitrile (1:1))
1 | CC(=O)NCCCC[C@@H]1NC(=O)[C@H](Cc2c[nH]c3c(C)cccc23)NC(=O)[C@H]([C@@H](C)O)NC(=O)[C@H](CC(N)=O)NC(=O)[C@@H]2CSSC[C@H](NC1=O)C(=O)N[C@@H](Cc1ccc(OCCN(C)C)cc1)C(=O)N[C@@H](Cc1ccc3ccccc3c1)C(=O)NC(C)(C)C(=O)N[C@H](C(=O)N[C@@H](CC(N)=O)C(=O)N[C@@H](Cc1cccnc1)C(=O)N(C)CC(N)=O)CCCCNC(=O)CCC(=O)N2 [compound 157] (CNT[Trp(7-Me)]K(Ac)CY(Me2NCH2CH2)[2Nal][Aib]KN[3Pal][Sar]-NH2; disulfide 1-6; linker N-10 via Suc) | 0.42 nM | 0.06 nM | 100% | 80% | 78% | 74% |  |  |  |  |  |  | 
2 | CC(=O)NCCCC[C@@H]1NC(=O)[C@H](Cc2c[nH]c3c(C)cccc23)NC(=O)[C@H]([C@@H](C)O)NC(=O)[C@H](CC(N)=O)NC(=O)[C@@H]2CSSC[C@H](NC1=O)C(=O)N[C@@H](Cc1ccc(OCCN(C)C)cc1)C(=O)N[C@@H](Cc1ccc3ccccc3c1)C(=O)N[C@@](C)(CC(C)C)C(=O)N[C@H](C(=O)N[C@@H](CC(N)=O)C(=O)N[C@@H](Cc1c[nH]cn1)C(N)=O)CCC(=O)NCCCCC(=O)N2 [compound 22] ([Ava]CNT[Trp(7-Me)]K(Ac)CY(Me2NCH2CH2)[2Nal][αMeL]ENH-NH2; disulfide 2-7; lactam N-11) | 0.49 nM | 1.37 nM | 60% | 82% | 79% | 79% |  |  |  |  |  |  | 
3 | Cc1cccc2c(C[C@@H]3NC(=O)[C@H]([C@@H](C)O)NC(=O)[C@H](CC(N)=O)NC(=O)[C@@H]4CSSC[C@H](NC(=O)[C@H](CCC(N)=O)NC3=O)C(=O)N[C@@H](Cc3ccc(OCCN(C)C)cc3)C(=O)N[C@@H](Cc3ccc5ccccc5c3)C(=O)NC(C)(C)C(=O)N[C@H](C(=O)N[C@@H](CO)C(=O)N[C@@H](Cc3c[nH]cn3)C(N)=O)CCC(=O)NCCCCC(=O)N4)c[nH]c12 [compound 43] ([Ava]CNT[Trp(7-Me)]QCY(Me2NCH2CH2)[2Nal][Aib]ESH-NH2; disulfide 2-7; lactam N-11) | 0.33 nM | 1.31 nM | 100% | 83% | 72% | 67% |  |  |  |  |  |  | 
4 | CC(=O)NCCCC[C@@H]1NC(=O)[C@H](Cc2c[nH]c3c(C)cccc23)NC(=O)[C@H]([C@@H](C)O)NC(=O)[C@H](CC(N)=O)NC(=O)[C@@H]2CSSC[C@H](NC1=O)C(=O)N[C@@H](Cc1ccc(OCCN(C)C)cc1)C(=O)N[C@@H](Cc1ccc3ccccc3c1)C(=O)NC(C)(C)C(=O)N[C@H](C(=O)N[C@@H](CC(N)=O)C(=O)N[C@@H](Cc1cccnc1)C(=O)N(C)CC(N)=O)CCC(=O)NCCCCC(=O)N2 [compound 64] ([Ava]CNT[Trp(7-Me)]K(Ac)CY(Me2NCH2CH2)[2Nal][Aib]EN[3Pal][Sar]-NH2; disulfide 2-7; lactam N-11) | 0.27 nM | 0.22 nM | 91% | 96% | 92% | 92% |  |  |  |  |  |  | 
5 | Cc1cccc2c(C[C@@H]3NC(=O)[C@H]([C@@H](C)O)NC(=O)[C@H](CC(N)=O)NC(=O)[C@@H]4CSSC[C@H](NC(=O)[C@H](CCC(N)=O)NC3=O)C(=O)N[C@@H](Cc3ccc(OCCN(C)C)cc3)C(=O)N[C@@H](Cc3ccc5ccccc5c3)C(=O)NC(C)(C)C(=O)N[C@H](C(=O)N[C@@H](CC(N)=O)C(=O)N[C@@H](Cc3cccnc3)C(=O)N[C@@H](CCCCNC(=O)COCCOCCNC(=O)COCCOCCNC(=O)CC[C@H](NC(=O)CCCCCCCCCCCCCCCCC(=O)O)C(=O)O)C(N)=O)CCCCNC(=O)CCC(=O)N4)c[nH]c12 [compound 71] (CNT[Trp(7-Me)]QCY(Me2NCH2CH2)[2Nal][Aib]KN[3Pal]K([AEEA-AEEA-γGlu-C18 diacid])-NH2; disulfide 1-6; linker N-10 via Suc) | 0.31 nM | 2.35 nM | 76% |  |  |  |  |  |  |  |  |  | 
6 | COc1ccc(C[C@@H]2NC(=O)[C@@H]3CSSC[C@H](NC(=O)[C@@H](NC(C)=O)CCCCNC(=O)C[C@@H](C(=O)N[C@@H](CC(N)=O)C(=O)N[C@@H](CC(N)=O)C(N)=O)NC(=O)C(C)(C)NC(=O)[C@H](Cc4ccc5ccccc5c4)NC2=O)C(=O)N[C@@H](CC(N)=O)C(=O)N[C@@H]([C@@H](C)O)C(=O)N[C@@H](Cc2c[nH]c4ccccc24)C(=O)N[C@@H](CCC(N)=O)C(=O)N3)cc1 [compound 7] (Ac-KCNTWQCY(Me)[2Nal][Aib]DNN-NH2; lactam 1-11; disulfide 2-7) |  | 25 nM | 0% | 84% | 68% | 47% | 200 µg/mL (≈ 117 µM) | 160 µg/mL (≈ 93.8 µM) | 160 µg/mL (≈ 93.8 µM) | 150 µg/mL (≈ 87.9 µM) | 28.9% | 1.3% | 6.0%
